According to PubChem BioAssay AID2060912 (Molecular Pharmacology Branch, DTP, NCI, 2025):

Test system: HUVEC/MSC spheroids viability
Test: Human HUVEC/MSC cell line growth inhibition [KRAS2];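 for viability, T/C: percent of DMSO vehicle control luminescence so 100% = untreated viability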
Conditions: for IC50: curve of first compound; for viability, T/C: stronger effect = lower value
How it was run: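 The concentration series started at or near clinical Cmax (10 microM if not known) and fell in half-log increments, alone or in combination. Cells were stromal-only spheroids of pooled-donor HUVEC and hMSC (passage </=5), with different drug plates and layout from the tumor spheroid screens.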

[1] = second compound 0.0316 µM, first compound 0.0316 µM
[2] = second compound 0.0316 µM, first compound 0.1 µM
[3] = second compound 0.1 µM, first compound 0.0316 µM
[4] = second compound 0.1 µM, first compound 0.1 µM
[5] = second compound 0.316 µM, first compound 0.0316 µM
[6] = second compound 0.316 µM, first compound 0.1 µM
[7] = second compound 1 µM, first compound 0.0316 µM
[8] = second compound 1 µM, first compound 0.1 µM
[9] = second compound 3.16 µM, first compound 0.0316 µM
[10] = second compound 3.16 µM, first compound 0.1 µM
[11] = second compound 10 µM, first compound 0.0316 µM
[12] = second compound 10 µM, first compound 0.1 µM
[13] = second compound 0.0316 µM, first compound 0.316 µM
[14] = second compound 0.0316 µM, first compound 1 µM
[15] = second compound 0.0316 µM, first compound 3.16 µM
[16] = second compound 0.0316 µM, first compound 10 µM
[17] = second compound 0.1 µM, first compound 0.316 µM
[18] = second compound 0.1 µM, first compound 1 µM
[19] = second compound 0.1 µM, first compound 3.16 µM
[20] = second compound 0.1 µM, first compound 10 µM
[21] = second compound 0.316 µM, first compound 0.316 µM
[22] = second compound 0.316 µM, first compound 1 µM
[23] = second compound 0.316 µM, first compound 3.16 µM
[24] = second compound 0.316 µM, first compound 10 µM
[25] = second compound 1 µM, first compound 0.316 µM
[26] = second compound 1 µM, first compound 1 µM
[27] = second compound 1 µM, first compound 3.16 µM
[28] = second compound 1 µM, first compound 10 µM
[29] = second compound 3.16 µM, first compound 0.316 µM
[30] = second compound 3.16 µM, first compound 1 µM
[31] = second compound 3.16 µM, first compound 3.16 µM
[32] = second compound 3.16 µM, first compound 10 µM
[33] = second compound 10 µM, first compound 0.316 µM
[34] = second compound 10 µM, first compound 1 µM
[35] = second compound 10 µM, first compound 3.16 µM
[36] = second compound 10 µM, first compound 10 µM

CC(C)n1nc(-c2ccc3oc(N)nc3c2)c2c(N)ncnc21 + C=CC(=O)N1CCN(c2nc(=O)n(-c3c(C)ccnc3C(C)C)c3nc(-c4c(O)cccc4F)c(F)cc23)C(C)C1
IC50 (second compound 0.0316 µM): 0.00306 µM
IC50 (second compound 0.1 µM): 0.00963 µM
IC50 (second compound 0.316 µM): 0.1 µM
IC50 (second compound 1 µM): > 0.1 µM
IC50 (second compound 3.16 µM): > 0.1 µM
IC50 (second compound 10 µM): > 0.1 µM
viability, T/C (second compound 0.0316 µM, first compound 0.000316 µM): 88.3%
viability, T/C (second compound 0.0316 µM, first compound 0.001 µM): 76.4%
viability, T/C (second compound 0.0316 µM, first compound 0.00316 µM): 48.8%
viability, T/C (second compound 0.0316 µM, first compound 0.01 µM): 49.7%
viability, T/C [1]: 43.2%
viability, T/C [2]: 44.1%
viability, T/C (second compound 0.1 µM, first compound 0.000316 µM): 88.7%
viability, T/C (second compound 0.1 µM, first compound 0.001 µM): 59.8%
viability, T/C (second compound 0.1 µM, first compound 0.00316 µM): 63.4%
viability, T/C (second compound 0.1 µM, first compound 0.01 µM): 48.5%
viability, T/C [3]: 50.4%
viability, T/C [4]: 36.2%
viability, T/C (second compound 0.316 µM, first compound 0.000316 µM): 79.4%
viability, T/C (second compound 0.316 µM, first compound 0.001 µM): 86.6%
viability, T/C (second compound 0.316 µM, first compound 0.00316 µM): 53.5%
viability, T/C (second compound 0.316 µM, first compound 0.01 µM): 52.5%
viability, T/C [5]: 64.4%
viability, T/C [6]: 50.6%
viability, T/C (second compound 1 µM, first compound 0.000316 µM): 94%
viability, T/C (second compound 1 µM, first compound 0.001 µM): 73.1%
viability, T/C (second compound 1 µM, first compound 0.00316 µM): 65%
viability, T/C (second compound 1 µM, first compound 0.01 µM): 51.9%
viability, T/C [7]: 65%
viability, T/C [8]: 53.5%
viability, T/C (second compound 3.16 µM, first compound 0.000316 µM): 86.2%
viability, T/C (second compound 3.16 µM, first compound 0.001 µM): 74.9%
viability, T/C (second compound 3.16 µM, first compound 0.00316 µM): 66.6%
viability, T/C (second compound 3.16 µM, first compound 0.01 µM): 60.6%
viability, T/C [9]: 62.3%
viability, T/C [10]: 56.4%
viability, T/C (second compound 10 µM, first compound 0.000316 µM): 75%
viability, T/C (second compound 10 µM, first compound 0.001 µM): 67.4%
viability, T/C (second compound 10 µM, first compound 0.00316 µM): 72.9%
viability, T/C (second compound 10 µM, first compound 0.01 µM): 76.3%
viability, T/C [11]: 60.4%
viability, T/C [12]: 54.9%

COc1cc(Nc2ncc3c(n2)-c2ccc(Cl)cc2C(c2c(F)cccc2OC)=NC3)ccc1C(=O)O + C=CC(=O)N1CCN(c2nc(=O)n(-c3c(C)ccnc3C(C)C)c3nc(-c4c(O)cccc4F)c(F)cc23)C(C)C1
IC50 (second compound 0.0316 µM): > 10 µM
IC50 (second compound 0.1 µM): > 10 µM
IC50 (second compound 0.316 µM): > 10 µM
IC50 (second compound 1 µM): > 10 µM
IC50 (second compound 3.16 µM): > 10 µM
IC50 (second compound 10 µM): > 10 µM
viability, T/C [1]: 94.8%
viability, T/C [2]: 125%
viability, T/C [13]: 99%
viability, T/C [14]: 109%
viability, T/C [15]: 106%
viability, T/C [16]: 71.6%
viability, T/C [3]: 103%
viability, T/C [4]: 109%
viability, T/C [17]: 108%
viability, T/C [18]: 111%
viability, T/C [19]: 106%
viability, T/C [20]: 56.3%
viability, T/C [5]: 111%
viability, T/C [6]: 114%
viability, T/C [21]: 93.8%
viability, T/C [22]: 116%
viability, T/C [23]: 106%
viability, T/C [24]: 69.3%
viability, T/C [7]: 122%
viability, T/C [8]: 127%
viability, T/C [25]: 115%
viability, T/C [26]: 127%
viability, T/C [27]: 117%
viability, T/C [28]: 72.9%
viability, T/C [9]: 110%
viability, T/C [10]: 123%
viability, T/C [29]: 110%
viability, T/C [30]: 96.3%
viability, T/C [31]: 109%
viability, T/C [32]: 83.3%
viability, T/C [11]: 136%
viability, T/C [12]: 129%
viability, T/C [33]: 154%
viability, T/C [34]: 120%
viability, T/C [35]: 101%
viability, T/C [36]: 66.8%

COc1cc2nccc(Oc3ccc(NC(=O)C4(C(=O)Nc5ccc(F)cc5)CC4)cc3)c2cc1OC + C=CC(=O)N1CCN(c2nc(=O)n(-c3c(C)ccnc3C(C)C)c3nc(-c4c(O)cccc4F)c(F)cc23)C(C)C1
IC50 (second compound 0.0316 µM): > 10 µM
IC50 (second compound 0.1 µM): 6.21 µM
IC50 (second compound 0.316 µM): 7.63 µM
IC50 (second compound 1 µM): 9.55 µM
IC50 (second compound 3.16 µM): > 10 µM
IC50 (second compound 10 µM): 8.55 µM
viability, T/C [1]: 66.7%
viability, T/C [2]: 102%
viability, T/C [13]: 63.2%
viability, T/C [14]: 72.4%
viability, T/C [15]: 77.2%
viability, T/C [16]: 51.5%
viability, T/C [3]: 61.5%
viability, T/C [4]: 71%
viability, T/C [17]: 89.2%
viability, T/C [18]: 92.6%
viability, T/C [19]: 91.7%
viability, T/C [20]: 27.8%
viability, T/C [5]: 79.2%
viability, T/C [6]: 108%
viability, T/C [21]: 96.6%
viability, T/C [22]: 80.6%
viability, T/C [23]: 83.3%
viability, T/C [24]: 40.2%
viability, T/C [7]: 87%
viability, T/C [8]: 89.5%
viability, T/C [25]: 111%
viability, T/C [26]: 92.4%
viability, T/C [27]: 92.6%
viability, T/C [28]: 48.2%
viability, T/C [9]: 103%
viability, T/C [10]: 124%
viability, T/C [29]: 129%
viability, T/C [30]: 88%
viability, T/C [31]: 84.2%
viability, T/C [32]: 56.9%
viability, T/C [11]: 112%
viability, T/C [12]: 102%
viability, T/C [33]: 109%
viability, T/C [34]: 97.9%
viability, T/C [35]: 123%
viability, T/C [36]: 40.7%
